Measured values from PMC3459870, “Hit-to-Lead Development of the Chamigrane Endoperoxide Merulin A for the Treatment of African Sleeping Sickness” (PLoS ONE, 2012).
Where two headings read alike, the source gives them in different places.

What was measured:
[1] = treatment of second stage infection (CNS infection); estimated; cited from earlier work
[2] = test system: Trypanosoma brucei brucei strain 427–221; assay: Trypanosome screening assay (CellTiter-Glo ATP bioluminescence, 48 h); assay type: cell-based; settings: Trypanosoma brucei, read-out: T.b.b IC50
Protocol: Trypanosoma brucei brucei strain 427–221 were grown at 37°C, 5% CO2 in HMI-9 medium containing 10% Fetal Bovine Serum, 10% Serum Plus (JRH Inc., Lenexa, KS,USA) and penicillin/streptomycin.
T.b.b. 427–221 were diluted to 2.10^4 per ml in complete HMI-9 medium and aliquoted in Greiner sterile 384-well flat white opaque culture plates using a WellMate cell dispenser from Matrix Tech. (Hudson, NH, USA). Test compounds were serially diluted in dimethyl sulfoxide (DMSO) and added to the assay plates with the robotic dispenser Biomek FXp liquid handler (Beckman Coulter). Thimerosal (2 µM final concentration) was added as a positive control and DMSO as a negative control (1% final concentration). Trypanosomes were incubated with compounds for 48 hours at 37°C with 5% CO2 before monitoring cell viability as previously described. Briefly, trypanosomes were lysed in the wells by adding 25 µL of CellTiter-GloTM (Promega). The lysed trypanosomes were placed on an orbital shaker at room temperature for 2 minutes. After lysis, the resulting ATP-bioluminescence was measured at room temperature using an Analyst HT plate reader (Molecular Devices). Percentage inhibition of parasite growth was calculated for each well as [1−(RLUx−RLU+)/(RLU−−RLU+)]*100 where RLUx, RLU+ and RLU− are respectively the Relative Light Units for each well, positive (thimerosal) and negative (DMSO) controls. A screening window coefficient, denoted Z′ factor, was used to evaluate the performance of the assay. The Z′ factor, calculated as 1−(3σc++3σc−)/(μc+−μc−) where σc+, σc−, μc+ and μc− are respectively the standard deviation and mean values of positive and negative controls, is reflective of the assay signal dynamic range and the data variation associated with signal measurement. IC50's were calculated using Prism (GraphPad).

HeLa cells = assay: HeLa toxicity screening assay (nuclei count by imaging, 17 h); assay type: cell-based, human; settings: for IC50: Homo sapiens, HeLa
Protocol: (§1) HeLa cells were plated at a density of 2,000 cells per well into two 384 well clear bottom plates (Costar 3712) in DMEM with 10% FBS. After 24 hours incubation at 37°C with 5% CO2 the cells were pinned with 200 nL of a two-fold serial dilution of merulin analogues. After 17 hours of treatment at 37°C in 5% CO2 the plates were fixed with 4% formaldehyde and washed with PBS (BioTek ELx405). After 10 minutes in PBS with 0.5% TritonX-100 each plate was washed and blocked with 2% Bovine Serum Albumin in PBS. Nuclei were stained with Hoechst 33342 then washed and placed in 40 µL of PBS with 0.1% sodium azide. Plates were imaged using the ImageXpress Micro epifluorescent scope (Molecular Devices). MetaXpress software was used to quantify total number of cells and IC50s were calculated using Prism (GraphPad).

T.b.b 427–221 = assay: Live trypanosome fluorescence imaging; assay type: cell-based, Trypanosoma brucei brucei; settings: 20 µM, 2 hours, washed, 1 hour compound-free medium
Protocol: To explore the intracellular of distribution the coumarin-labeled derivative 30, parasites were incubated with 20 µM of 30 for 2 hours, washed once, and incubated in compound-free medium for 1 hour prior to microscopy. […] Although visualization of labeled merulin A in live cell imaging is an encouraging observation, further experiments are required to determine the precise localization and potential function of these compounds against T. brucei.
T.b.b 427–221 diluted to […] in complete HMI-9 medium were incubated with either 20 µM of compound 30, 20 µM of the free coumarin dye or 30 µM of compound 17 at 37°C for 2 hours. The parasites were then washed once with complete HMI-9 medium and incubated in compound-free complete HMI-9 medium for 1 additional hour. Parasites were directly mounted under coverslips and viewed with 100×-oil immersion on a Zeiss Laser Confocal microscope LSM 510 Meta.

T98-G cells = assay: Glioblastoma toxicity screening assay (nuclei count by imaging, 17 h); assay type: cell-based; settings: Homo sapiens, T98G; Figure 4
Protocol: as §1, with “T98-G cells (ATTC” for “HeLa cells were”, “T98-G cells (ATTC number: CRL-1690) were plated” for “HeLa cells were plated”

SMILES | IC50 (HeLa cells; Figure 4) | fluorescence detected in live parasites (T.b.b 427–221) | IC50 (T98-G cells) | IC50 ([2]; Figure 4, bloodstream form) | further results
Nc1nc(N)nc(Nc2ccc([As]3SCC(CO)S3)cc2)n1 (stereo not drawn) [Melarsoprol, reference compound] |  |  |  |  | mortality rate due to drug-associated toxicity [1]: three to ten; IC50 [2]: 0.002 µM
CC1(C)CCC(=O)[C@@]2(C)OO[C@@H]3C[C@@]12CC[C@H]3O [compound 1, merulin A] | > 50 µM | No fluorescence was detected | > 50 µM |  | IC50 ([2]; Table 3): 4 µM
CC1(C)CCC(=O)[C@@]2(C)OO[C@H]3C[C@@]12CC[C@H]3OC(=O)c1ccc(N2CCCCC2)nc1 [compound 26, (3S,4R,6aS,10aS)-7,7,10a-trimethyl-10-oxooctahydro-3H-3,6a-methanobenzo[c][1,2]dioxocin-4-yl 6-(piperidin-1-yl)nicotinate] | 24 µM |  | 15 µM | 0.21 µM | 
CC(C)(C)OC(=O)N1CCC(CC(=O)O[C@@H]2CC[C@@]34C[C@@H]2OO[C@]3(C)C(=O)CCC4(C)C)CC1 [compound 27, tert-butyl-4-(2-oxo-2-(((3S,4R,6aS,10aS)-7,7,10a-trimethyl-10-oxooctahydro-3H-3,6a-methanobenzo[c][1,2]dioxocin-4-yl)oxy)ethyl)piperidine-1-carboxylate] | 33 µM |  | > 50 µM | 0.16 µM | 
CC1(C)CCC(=O)[C@@]2(C)OO[C@H]3C[C@@]12CC[C@H]3OC(=O)CC1CCNCC1 [compound 28, (3S,4R,6aS,10aS)-7,7,10a-trimethyl-10-oxooctahydro-3H-3,6a-methanobenzo[c][1,2]dioxocin-4-yl 2-(piperidin-4-yl)acetate] | 21 µM |  | > 50 µM | 0.16 µM | 
CC1(C)CCC(=O)[C@@]2(C)OO[C@H]3C[C@@]12CC[C@H]3OC(=O)CN [compound 29, (3S,4R,6aS,10aS)-7,7,10a-trimethyl-10-oxooctahydro-3H-3,6a-methanobenzo[c][1,2]dioxocin-4-yl 2-aminoacetate] | > 50 µM |  | > 50 µM | > 20 µM | 
CN(C)c1ccc2c(CC(=O)O[C@@H]3CC[C@@]45C[C@@H]3OO[C@]4(C)C(=O)CCC5(C)C)cc(=O)oc2c1 [compound 30, (3S,4R,6aS,10aS)-7,7,10a-trimethyl-10-oxooctahydro-3H-3,6a-methanobenzo[c][1,2]dioxocin-4-yl 2-(7-(dimethylamino)-2-oxo-2H-chromen-4-yl)acetate] |  | Diffuse cytoplasmic fluorescent signal | > 50 µM |  | IC50 ([2]; Table 3): 0.42 µM; SI (HeLa cells; HeLa vs T. brucei): > 125; IC50 (HeLa cells): > 50 µM
CN(C)c1ccc2c(CC(=O)NCCNC(=O)CCc3ccccc3)cc(=O)oc2c1 [compound 31, N-(2-(2-(7-(dimethylamino)-2-oxo-2H-chromen-4-yl)acetamido)ethyl)-3-phenylpropanamide] |  | No fluorescence was detected |  |  | 
